The values below are quoted from earlier work in PMC5102340 (Advanced functional materials, 2016).

Read-outs that look alike come from different tables or passages of the source.

For `Oc1ccccc1O` [Catechol], the pKa1 result is reported as “≈ 9.4” and the pKa2 result is “≈ 13.7”. For the same compound, for the setting “listed as catechol”, the pKa1 was 9.4.
